Data: patent US8158575B2, “Agent for the prevention and treatment of sexually transmitted diseases-I” (priority 2001, dated 2012)
Marks after values point to notes of the source that are not given here.

Key:
C. trachomatis = C. trachomatis genital tract infection in mice; type: in vivo, mouse; settings: 15 μL of 100 mg/mL, −20 sec
Description: Lower genital tract infection is defined by isolation of the organism by culture from vaginal swab samples collected on days 3 or 6 post challenge. For upper genital tract infection the definition is isolation of the organism by culture from the upper genital tract tissue harvested on day 10 post challenge. Phosphate buffer PBS treated mice were used as controls.

ME180 cells = assay: XTT cell viability in the CD4-independent transmission assay
Description: ME180 cells, a CD4 negative, X4 positive cervical epithelial cell line is maintained in RPMI 1640 supplemented with 10% fetal bovine serum, glutamine and antibiotics. Twenty-four h prior to the assay ME180 cells are trypsonized, washed and seeded in 96-well flat bottom microtiter plates at a density of 2×10^3 cells per well. On the day of the assay, H9 cells chronically infected with the SK1 clinical isolate of HIV-1 (H9-SK1) are treated with freshly made mitomycin C (200 μg/ml) for 60 minutes at 37° C. This concentration of mitomycin C is sufficient to result in cell death, but allows virus transmission to occur. After mitomycin C treatment the H9-SK1 cells are washed three times with tissue culture medium. Test compounds are added to the ME180 monolayer followed by 2×10^4 H9-SK1 cells. The ME180 cells are co-cultured with H9-SK-1 cells and test material for 4 h, and the H9-SK1 cells are removed by washing the ME180 monolayer three times with PBS. At 24 and 48 h post assay initiation the wells are again washed three times with PBS to ensure removal of the H9-SK1 cells, and culture continued in test material free media. At six days post-co-cultivation, supernatants are collected and evaluated for p24 antigen expression by ELISA. Cell viability is assessed by XTT dye reduction. […] Testing in the presence of mucin is carried out by addition of 200 µg/ml of porcine mucin (Sigma Chemical Co., St Louis, Mo.) to the transmission reactions. Transmission intervals and washing without replacement of mucin or compound are carried as described above. All determinations are performed in triplicate with serial ½ Log10 dilution of the test materials.
TC50 values for the test materials are derived by measuring the reduction of the tetrazolium dye XTT (2,3-bis(2-methoxy-4-nitro-5-sulfophenyl)-5-[(phenylamino)carbonyl]-2H-tetrazolium hydroxide) in replicate microtiter plates containing cell and compound without virus. […] XTT solution is prepared daily as a stock of 1 mg/mL in PBS. Phenazine methosulfate (PMS) solution is prepared at 15 mg/mL in PBS and stored in the dark at −20° C. XTT/PMS stock is prepared immediately before use by diluting the PMS 1:100 into PBS and adding 40 µl per mL of XTT solution. Fifty microliters of XTT/PMS are added to each well of the plate and the plate incubated for 4 h at 37° C. The 4 h incubation has been empirically determined to be within the linear response range for […] dye reduction with the indicated numbers of cells for each assay. Adhesive plate sealers are used in place of the lids, the sealed plate is inverted several times to mix the soluble formazan product and the plate is read at 450 nm with a Molecular Devices Vmax 96 well plate format spectrophotometer.
Dextran sulfate (positive) and dextran (negative) are used as controls for the CD4-dependent and CD4-independent HIV transmission inhibition assays. […] Commercially available Penicillin (10,000 U/ml) Streptomycin (10.0 mg/ml) solution is used as a positive control for the Lactobacillus sensitivity assay.

BHAlyslys2lys4lys8lys16[NH—CO—CH2)O-3,6-Naphthyl-(SO3Na)2]32 [SPL-7013]
Animals Protected Against Infection, Lower Tract (%) (C. trachomatis; Group 1, mouse): (50%)^a
Animals Protected Against Infection, Lower Tract (number) (C. trachomatis; Group 1, mouse): 8
Animals Protected Against Infection, Upper Tract (%) (C. trachomatis; Group 1, mouse): (50%)
Animals Protected Against Infection, Upper Tract (number) (C. trachomatis; Group 1, mouse): 8
Animals Protected Against Infection, Lower Tract (%) (C. trachomatis; Group 2, mouse): (38%)
Animals Protected Against Infection, Lower Tract (number) (C. trachomatis; Group 2, mouse): 6
Animals Protected Against Infection, Upper Tract (%) (C. trachomatis; Group 2, mouse): (50%)^a
Animals Protected Against Infection, Upper Tract (number) (C. trachomatis; Group 2, mouse): 8
CD4-Independent Transmission Assay TC50 (ME180 cells): >100 mg/L
